{
  "source": "patent US6372943B1",
  "about": "“Polyenepolycarboxylic acids, derivatives thereof with respect to carboxyl groups, or salts of these” (Fujisawa Pharmaceutical Co., Ltd., priority 1998, dated 2002)",
  "key": {"[1]": {"assay": "Dispersing activity, organic pigment in a non-aqueous system case 2, S0 anhydride in ethyl acetate (Example 15)", "conditions": "supernatant 0.25 mL", "experimental": "(§1) Into a test tube (16×150 mm) was scaled and collected 0.5 mL of a suspension of copper phthalocyanine blue in ethyl acetate (40 mg/10 mL) under stirring with a point mixer, and ethyl acetate (4.5 mL) was further added thereto.\n(§2) To this suspension was added a solution of each of S1 and S2 anhydrides obtained in preparation example 1 in ethyl acetate (20 mg/2 mL), and ethyl acetate was further added thereto to give a total amount of 6 mL. This liquid was stirred with a point mixer for 15 seconds, treated with ultrasonic wave for 30 minutes, and then allowed to stand for 10 to 30 minutes. The resulting supernatant liquid (0.5 mL) was colle cted, admixed with ethyl acetate to give a total amount of 3 mL and then measured for absorbance at 660 wavelength. From the absorbance thus measured, the dispersibility was evaluated.\nS0 anhydride obtained in preparation example 11 was treated in the same manner as in example 14. The resulting supernatant liquid (0.25 mL) was collected, admixed with ethyl acetate to give a total amount of 3 mL, and then measured for absorbance. From the absorbance thus measured, the dispersing activity was evaluated."}, "[2]": {"assay": "Detergent activity against artificially soiled cloth, Launder-o-meter (Example 19)", "conditions": "additive 0.25 g/L in basic washing liquid; 20° C., 10 minutes; ratio to washing liquid with no addition", "experimental": "A detergency test was conducted using a Launder-o-meter as a detergency tester by washing 15 pieces of artificially wet-soiled cloth (size: 5×5 cm, dirt composition: oleic acid 28.3%, triolein 15.6%, cholesterol oleate 12.2%, liquid paraffin 2.5%, squalene 2.5%, cholesterol 1.6%, gelatin 7.0%, soil matter 29.8% and carbon black 0.2-0.3%) available from SENTAKU KAGAKU KYOKAI (foundation) in a washing liquid (liquid temperature: 20° C.) of the composition shown in Table 25 for 10 minutes, followed by rinsing for three minutes.\nJudgment was done in the following manner. The reflectivity of each of the 15 pieces of artificially soiled cloth was measured before and after the test by means of a spectrocolorizeter, and from the mean value of the measured values the detergency was calculated according to the formula of Kubelka and Munk. The ratio of the detergency calculated of a sample to the detergency of a washing liquid with no addition was found as a detergency ratio."}, "[3]": {"assay": "Dispersing activity, organic pigment in a non-aqueous system case 1, ethyl acetate (Example 14)", "experimental": "as §1, §2"}, "[4]": {"assay": "Dispersing activity, organic pigment in a non-aqueous system case 3, ethanol (Example 16)", "conditions": "supernatant 0.25 mL", "experimental": "as §1, §2\nThe same procedure as in example 14 except for the use of ethanol instead of ethyl acetate was performed. The amount of a supernatant liquid was 0.25 mL. From the absorbance thus measured, the dispersing activity was evaluated."}, "[5]": {"assay": "Dispersing activity, organic pigment in an aqueous system case 1, phthalocyanine green (Example 12)", "conditions": "standing three hours", "experimental": "Into a test tube (16×150 mm) were placed a phthalocyanine green suspension (5 mL: phthalocyanine green 16 mg/distilled water 200 mL) and the filtrate (evaporated to dryness) obtained in culture example 1 in a predetermined amount, followed by stirring for 15 seconds with a point mixer. After the stirring, the resulting mixture liquid was allowed to stand for three hours, and then the diameter of phthalocyanine green deposited on the bottom of the test tube was measured to evaluate the dispersibility from the diameter measured. That is, a greater diameter measured is indicative of better dispersibility. For comparison, the same procedure was taken with commercially available naphthalenesulfonate or lignin sulfonate."}, "[6]": {"assay": "Sequestering ability against calcium ion under alkaline condition (pH13) (Example 17)", "format": "physicochemical", "experimental": "First, a liquid for measurement was prepared in the following manner. Potassium oxalate (0.6 g) was dissolved in 0.1N sodium hydroxide (500 mL), and in the resulting solution (10 mL) was dissolved pentasodium salt of S1 compound (40) mg) or heptasodium salt of S2 compound (40 mg) to give the liquid for measurement. As a titrant was used 2.2% calcium acetate solution.\nThe titrant was added dropwise to this liquid for measurement under stirring until the liquid for measurement became turbid by precipitation of calcium oxalate to determine the titer used A (mL). Another liquid for measurement not containing any one of the test samples was also measured in the same manner as above to determine the titer of blank B (mL). Based on the titers A and B, the sequestering ability against calcium ion was calculated according to the following formula. For comparison, an existing chelating agent (EDTA·4Na) was treated in the same manner as above to calculate its sequestering ability against calcium ion.\nSequestering ability against calcium ion [Ca ion (mg)/test sample (1 g)]=(A−B)×(1 g/test sample amount precisely weighed)×5\nwherein the numeral “5” is the amount of Ca ion (5 mg) equivalent to 1 mL of the 2.2% calcium acetate solution."}},
  "data": [
    {"compound": "CC/C=C/C1=C(CCC(=O)O)C(=O)OC1=O", "note": "[S0 anhydride]", "values": [
      {"measurement": "Absorbance (660 nm)", "setting": "[1]; amount added 0.5 mg", "result": 0.84},
      {"measurement": "Absorbance (660 nm)", "setting": "[1]; amount added 1.0 mg", "result": 0.89}
    ]},
    {"compound": "O=C([O-])CC(O)(CC(=O)[O-])C(=O)[O-].[Na+].[Na+].[Na+]", "note": "[Trisodium citrate]", "values": [
      {"measurement": "Detergency ratio", "setting": "[2]", "result": 1.38}
    ]},
    {"compound": "CC/C=C/C1=C(CC(CC)CC2=C(CCC(=O)O)C(=O)OC2=O)C(=O)OC1=O", "note": "(stereo not shown) [S1 anhydride]", "values": [
      {"measurement": "Absorbance (660 nm)", "setting": "[3]; amount added 2.5 mg", "result": 0.66},
      {"measurement": "Absorbance (660 nm)", "setting": "[3]; amount added 5 mg", "result": 1.27},
      {"measurement": "Absorbance (660 nm)", "setting": "[3]; amount added 10 mg", "result": 1.86},
      {"measurement": "Absorbance (660 nm)", "setting": "[4]; amount added 0.25 mg", "result": 0.05},
      {"measurement": "Absorbance (660 nm)", "setting": "[4]; amount added 0.50 mg", "result": 0.69},
      {"measurement": "Absorbance (660 nm)", "setting": "[4]; amount added 1.00 mg", "result": 0.63}
    ]},
    {"compound": "naphthalenesulfonate", "values": [
      {"measurement": "Diameter of phthalocyanine green deposited", "setting": "[5]; 0.17 mg", "result": 4, "unit": "mm"},
      {"measurement": "Diameter of phthalocyanine green deposited", "setting": "[5]; 0.85 mg", "result": 5, "unit": "mm"},
      {"measurement": "Diameter of phthalocyanine green deposited", "setting": "[5]; 1.7 mg", "result": 6, "unit": "mm"},
      {"measurement": "Diameter of phthalocyanine green deposited", "setting": "[5]; 8.5 mg", "result": 6, "unit": "mm"},
      {"measurement": "Diameter of phthalocyanine green deposited", "setting": "[5]; 17 mg", "result": 6, "unit": "mm"}
    ]},
    {"compound": "O=P(O)(O)OP(=O)(O)OP(=O)(O)O", "note": "[Sodium tripolyphosphate]", "values": [
      {"measurement": "Detergency ratio", "setting": "[2]", "result": 1.38}
    ]},
    {"compound": "O=C([O-])CN(CCN(CC(=O)[O-])CC(=O)[O-])CC(=O)[O-].[Na+].[Na+].[Na+].[Na+]", "note": "[EDTA · 4Na, EDTA·4Na]", "values": [
      {"measurement": "Sequestering ability against calcium ion, Ca ion", "setting": "[6]", "result": "92 mg/1 g of a test sample"}
    ]}
  ]
}
